In brackets after ≈: the same amount, converted by molar mass. Read-outs that look alike come from different tables or passages of the source.
Assays:
HIV-1 WT strain (IIIB) = assay: Anti-HIV-1 activity in MT-4 cells, MTT method, WT strain IIIB; type: cell-based
[1] = tested on: HIV-1 K103N + Y181C (RES056); assay: microbe, parasite or virus in culture; type: cell-based; conditions: for RF RES056: resistance fold, EC50 (mutant strain)/EC50 (WT strain)
HIV-1 K103N = assay: microbe, parasite or virus in culture; type: cell-based; conditions: for RF K103N: resistance fold, EC50 (mutant strain)/EC50 (WT strain)
HIV-1 Y181C = assay: microbe, parasite or virus in culture; type: cell-based; conditions: for RF Y181C: resistance fold, EC50 (mutant strain)/EC50 (WT strain)
HIV-1 Y188L = assay: microbe, parasite or virus in culture; type: cell-based; conditions: for RF Y188L: resistance fold, EC50 (mutant strain)/EC50 (WT strain)
HIV-1 E138K = assay: microbe, parasite or virus in culture; type: cell-based; conditions: for RF E138K: resistance fold, EC50 (mutant strain)/EC50 (WT strain)
HIV-1 F227L + V106A = assay: microbe, parasite or virus in culture; type: cell-based; conditions: for RF F227L + V106A: resistance fold, EC50 (mutant strain)/EC50 (WT strain)
MT-4 cells = assay: Cytotoxicity in mock-infected MT-4 cells, MTT method; type: cell-based; conditions: MTT method
HIV-1 L100I = assay: microbe, parasite or virus in culture; type: cell-based
[2] = Cytotoxicity in mock-infected MT-4 cells, MTT method; type: cell-based; conditions: human
HIV-1 RT = HIV-1 RT (Human immunodeficiency virus type 1 group M subtype B, UniProt P03366); assay: HIV-1 RT inhibition assay; type: biochemical
CYP2C9 = CYP2C9 (Homo sapiens, UniProt P11712); assay: Cytochrome P450 inhibition assay, CYP2C9; type: in vitro ADME
CYP2C19 = CYP2C19 (Homo sapiens, UniProt P33261); assay: Cytochrome P450 inhibition assay, CYP2C19; type: in vitro ADME
hERG channel = hERG channel (Homo sapiens, UniProt Q12809); assay: hERG channel inhibition assay, manual patch-clamp in HEK293 cells; type: cell-based; conditions: HEK293 cells stably transfected with hERG cDNA
[3] = In vivo pharmacokinetics in SD rats; parameters: species or system Sprague–Dawley (SD) rats
[4] = Single-dose acute toxicity in mice; type: in vivo; conditions: Kunming mice, single intragastric dose 2000 mg/kg, 7 days observation
[5] = tested on: main CYP enzymes (CYP1A2, CYP2C9, CYP2C19, CYP2D6, CYP3A4; range over isoforms); assay: Cytochrome P450 inhibition assay, summary over isoforms; type: in vitro ADME; conditions: human, human liver microsomes
CYP2D6 = CYP2D6 (Homo sapiens, UniProt P10635); assay: biochemical
CYP1A2 = target: T1, CYP1A2 (Homo sapiens, UniProt P05177); assay: Cytochrome P450 inhibition assay, CYP1A2
T1 sequence (P05177 1-516): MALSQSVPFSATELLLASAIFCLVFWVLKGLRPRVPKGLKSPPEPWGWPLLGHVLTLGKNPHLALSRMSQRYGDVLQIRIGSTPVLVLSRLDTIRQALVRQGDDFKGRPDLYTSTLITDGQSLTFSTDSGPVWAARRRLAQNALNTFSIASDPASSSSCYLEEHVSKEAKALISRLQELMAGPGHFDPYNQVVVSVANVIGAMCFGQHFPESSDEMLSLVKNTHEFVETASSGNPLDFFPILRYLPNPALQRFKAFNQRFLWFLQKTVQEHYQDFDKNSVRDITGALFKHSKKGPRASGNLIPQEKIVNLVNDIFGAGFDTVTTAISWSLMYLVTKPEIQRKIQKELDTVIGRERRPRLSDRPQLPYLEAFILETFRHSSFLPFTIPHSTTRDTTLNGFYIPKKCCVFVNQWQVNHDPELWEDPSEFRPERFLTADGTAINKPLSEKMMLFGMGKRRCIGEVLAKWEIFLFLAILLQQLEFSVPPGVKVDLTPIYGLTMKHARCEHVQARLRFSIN

CYP3A4 = CYP3A4 (Homo sapiens, UniProt P08684); assay: Cytochrome P450 inhibition assay, CYP3A4
[6] = selectivity index, ratio of CC50/EC50
[7] = Sprague-Dawley, rat, plasma, iv, 2 mg/kg
[8] = Sprague-Dawley, rat, plasma, po, 20 mg/kg

CYP2C9, sequence (P11712 whole entry): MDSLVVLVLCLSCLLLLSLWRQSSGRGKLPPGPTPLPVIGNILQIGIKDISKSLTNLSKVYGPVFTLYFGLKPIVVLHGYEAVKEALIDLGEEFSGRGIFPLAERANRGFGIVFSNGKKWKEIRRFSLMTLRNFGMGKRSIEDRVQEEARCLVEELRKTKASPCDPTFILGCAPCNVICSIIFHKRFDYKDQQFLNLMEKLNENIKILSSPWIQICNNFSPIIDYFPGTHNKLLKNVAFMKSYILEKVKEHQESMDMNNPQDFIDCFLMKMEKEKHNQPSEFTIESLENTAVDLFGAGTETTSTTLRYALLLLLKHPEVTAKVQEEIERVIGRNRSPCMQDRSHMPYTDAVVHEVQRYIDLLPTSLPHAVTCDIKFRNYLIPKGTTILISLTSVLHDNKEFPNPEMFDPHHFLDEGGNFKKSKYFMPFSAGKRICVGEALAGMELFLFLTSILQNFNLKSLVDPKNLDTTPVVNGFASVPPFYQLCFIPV
hERG channel, sequence (Q12809 whole entry): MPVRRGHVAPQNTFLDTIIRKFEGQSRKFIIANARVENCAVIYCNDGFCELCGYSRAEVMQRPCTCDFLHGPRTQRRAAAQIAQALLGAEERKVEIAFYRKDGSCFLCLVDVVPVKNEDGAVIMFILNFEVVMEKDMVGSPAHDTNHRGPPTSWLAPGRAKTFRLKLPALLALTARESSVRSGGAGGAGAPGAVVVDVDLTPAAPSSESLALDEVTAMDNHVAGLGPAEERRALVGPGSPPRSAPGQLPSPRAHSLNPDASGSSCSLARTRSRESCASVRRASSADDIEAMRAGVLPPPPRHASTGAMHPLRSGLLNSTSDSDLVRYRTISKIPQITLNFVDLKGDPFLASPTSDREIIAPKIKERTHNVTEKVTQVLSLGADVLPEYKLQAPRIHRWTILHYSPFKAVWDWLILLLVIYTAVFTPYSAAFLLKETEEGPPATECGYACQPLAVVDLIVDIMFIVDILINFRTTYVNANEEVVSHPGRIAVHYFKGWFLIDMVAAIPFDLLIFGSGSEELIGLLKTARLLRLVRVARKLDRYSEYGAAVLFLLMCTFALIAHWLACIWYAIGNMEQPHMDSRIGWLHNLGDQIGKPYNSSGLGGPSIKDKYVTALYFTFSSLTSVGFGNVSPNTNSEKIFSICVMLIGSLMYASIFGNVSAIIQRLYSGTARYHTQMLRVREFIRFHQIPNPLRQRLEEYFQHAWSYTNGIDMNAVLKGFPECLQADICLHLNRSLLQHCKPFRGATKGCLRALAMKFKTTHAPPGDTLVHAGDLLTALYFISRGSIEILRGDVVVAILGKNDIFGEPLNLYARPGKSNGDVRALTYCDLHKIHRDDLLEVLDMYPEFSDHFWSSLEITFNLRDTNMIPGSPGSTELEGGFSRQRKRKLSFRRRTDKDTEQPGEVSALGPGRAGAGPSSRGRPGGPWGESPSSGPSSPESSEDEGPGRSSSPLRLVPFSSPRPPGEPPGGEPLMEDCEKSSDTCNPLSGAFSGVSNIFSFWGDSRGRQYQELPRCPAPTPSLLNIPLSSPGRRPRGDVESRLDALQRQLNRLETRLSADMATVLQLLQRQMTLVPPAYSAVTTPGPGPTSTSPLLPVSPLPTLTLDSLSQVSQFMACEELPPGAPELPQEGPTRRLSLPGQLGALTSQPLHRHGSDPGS
CYP2D6, sequence (P10635 whole entry): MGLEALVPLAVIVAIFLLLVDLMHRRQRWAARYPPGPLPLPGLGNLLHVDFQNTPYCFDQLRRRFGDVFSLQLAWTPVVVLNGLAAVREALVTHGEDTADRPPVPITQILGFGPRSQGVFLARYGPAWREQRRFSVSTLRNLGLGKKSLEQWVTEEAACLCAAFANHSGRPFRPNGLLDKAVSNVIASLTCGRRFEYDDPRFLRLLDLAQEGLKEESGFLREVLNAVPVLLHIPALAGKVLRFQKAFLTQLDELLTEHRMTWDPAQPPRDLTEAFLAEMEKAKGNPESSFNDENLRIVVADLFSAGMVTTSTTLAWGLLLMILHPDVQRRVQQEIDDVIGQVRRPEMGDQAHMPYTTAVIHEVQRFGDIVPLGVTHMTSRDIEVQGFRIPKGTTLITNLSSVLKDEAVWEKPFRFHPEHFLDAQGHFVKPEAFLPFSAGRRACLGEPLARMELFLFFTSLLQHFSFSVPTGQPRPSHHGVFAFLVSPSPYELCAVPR
CYP3A4, sequence (P08684 whole entry): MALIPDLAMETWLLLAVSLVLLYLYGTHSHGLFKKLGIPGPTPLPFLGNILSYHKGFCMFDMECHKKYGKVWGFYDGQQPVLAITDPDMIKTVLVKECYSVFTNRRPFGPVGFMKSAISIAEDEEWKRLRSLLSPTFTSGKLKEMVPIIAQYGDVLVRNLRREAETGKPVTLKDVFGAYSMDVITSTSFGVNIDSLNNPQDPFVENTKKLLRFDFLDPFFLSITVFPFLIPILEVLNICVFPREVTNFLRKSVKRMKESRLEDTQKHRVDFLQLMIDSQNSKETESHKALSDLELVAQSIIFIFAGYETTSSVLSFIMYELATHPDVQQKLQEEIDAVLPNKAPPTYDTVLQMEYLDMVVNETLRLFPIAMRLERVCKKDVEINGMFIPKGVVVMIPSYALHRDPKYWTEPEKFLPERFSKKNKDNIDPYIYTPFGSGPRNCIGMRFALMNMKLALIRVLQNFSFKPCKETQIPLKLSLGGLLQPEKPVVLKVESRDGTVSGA
CYP2C19, sequence (P33261 whole entry): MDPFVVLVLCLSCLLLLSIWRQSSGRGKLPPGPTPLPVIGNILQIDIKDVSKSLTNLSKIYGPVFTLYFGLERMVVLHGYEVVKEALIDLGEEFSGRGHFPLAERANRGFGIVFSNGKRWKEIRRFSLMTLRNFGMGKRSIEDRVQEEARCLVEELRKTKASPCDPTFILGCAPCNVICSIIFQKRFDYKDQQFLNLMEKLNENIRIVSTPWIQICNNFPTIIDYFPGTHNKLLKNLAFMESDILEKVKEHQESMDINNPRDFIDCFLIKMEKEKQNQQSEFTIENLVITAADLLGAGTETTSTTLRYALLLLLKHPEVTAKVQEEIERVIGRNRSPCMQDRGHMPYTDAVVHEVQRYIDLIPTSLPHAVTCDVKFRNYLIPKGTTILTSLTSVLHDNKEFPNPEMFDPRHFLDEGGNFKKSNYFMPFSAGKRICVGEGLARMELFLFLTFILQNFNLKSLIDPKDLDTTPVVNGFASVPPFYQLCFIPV

## Cc1ccnc2c1NC(=O)c1cccnc1N2C1CC1 [NVP, reference compound]
HIV-1 WT strain (IIIB); read-out: EC50 IIIB, MT-4 cells, MTT method, HIV-1 IIIB (WT)
  EC50: 118 ± 66.9 nM
[1]; read-out: EC50 RES056, MT-4 cells, MTT method, RES056 (K103N + Y181C)
  EC50: 2220 ± 736 nM
[1]
  RF RES056: 18.8
HIV-1 K103N; read-out: EC50 K103N, MT-4 cells, MTT method
  EC50: 3550 ± 2410 nM
HIV-1 K103N
  RF K103N: 30.0
HIV-1 Y181C; read-out: EC50 Y181C, MT-4 cells, MTT method
  EC50: 3780 ± 2580 nM
HIV-1 Y181C
  RF Y181C: 32.0
HIV-1 Y188L; read-out: EC50 Y188L, MT-4 cells, MTT method
  EC50: 4420 ± 2470 nM
HIV-1 Y188L
  RF Y188L: 37.4
HIV-1 E138K; read-out: EC50 E138K, MT-4 cells, MTT method
  EC50: 158 ± 112 nM
HIV-1 E138K
  RF E138K: 1.3
HIV-1 F227L + V106A; read-out: EC50 F227L + V106A, MT-4 cells, MTT method
  EC50: 3540 ± 2750 nM
HIV-1 F227L + V106A
  RF F227L + V106A: 30.0
MT-4 cells
  CC50: > 15000 nM

## Cc1cc(/C=C/C#N)cc(C)c1Oc1nc(NC2CCN(Cc3ccc(S(N)(=O)=O)cc3)CC2)nc2c1SCCC2 [compound 23h, (E)-4-((4-((4-(4-(2-Cyanovinyl)-2,6-dimethylphenoxy)-7,8-dihydro-6H-thiopyrano[3,2-d]pyrimidin-2-yl)amino)piperidin-1-yl)methyl)benzenesulfonamide]
HIV-1 WT strain (IIIB); Human immunodeficiency virus 1, IIIB, MT4, read-out: EC50 IIIB
  EC50: 3.43 ± 2 nM
[1]; Human immunodeficiency virus 1, MT4, read-out: EC50 RES056
  EC50: 15.2 ± 9.44 nM
[1]; ratio of EC50 values vs EFV
  Fold greater potency than EFV, RES056: 7.5 fold
[1]; ratio of EC50 values vs ETR
  Fold greater potency than ETR, RES056: 2.3 fold
[1]
  RF RES056: 4.4
[1]; [6]
  SI RES056: 218
HIV-1 L100I; Human immunodeficiency virus 1, MT4, read-out: EC50 L100I
  EC50: 4.46 ± 0.36 nM
HIV-1 L100I; ratio of EC50 values vs ETR
  Times greater activity than ETR, L100I: 2.0 times
HIV-1 L100I; resistance fold, EC50 (mutant strain)/EC50 (WT strain)
  RF L100I: 1.3
HIV-1 L100I; [6]
  SI L100I: 742
HIV-1 K103N; Human immunodeficiency virus 1, MT4, read-out: EC50 K103N
  EC50: 6.13 ± 0.12 nM
HIV-1 K103N
  RF K103N: 1.8
HIV-1 K103N; [6]
  SI K103N: 540
HIV-1 Y181C; Human immunodeficiency virus 1, MT4, read-out: EC50 Y181C
  EC50: 8.46 ± 1.17 nM
HIV-1 Y181C; ratio of EC50 values vs ETR
  Fold improvement in potency compared to ETR, Y181C: 1.7 fold
HIV-1 Y181C
  RF Y181C: 2.5
HIV-1 Y181C; [6]
  SI Y181C: 391
HIV-1 Y188L; Human immunodeficiency virus 1, MT4, read-out: EC50 Y188L
  EC50: 16.5 ± 5.18 nM
HIV-1 Y188L
  RF Y188L: 4.8
HIV-1 Y188L; [6]
  SI Y188L: 201
HIV-1 E138K; Human immunodeficiency virus 1, MT4, read-out: EC50 E138K
  EC50: 21.4 ± 4.19 nM
HIV-1 E138K
  RF E138K: 6.2
HIV-1 E138K; [6]
  SI E138K: 155
HIV-1 F227L + V106A; Human immunodeficiency virus 1, MT4, read-out: EC50 F227L + V106A
  EC50: 5.35 ± 0.69 nM
HIV-1 F227L + V106A; ratio of EC50 values vs EFV
  Fold better than EFV, F227L + V106A: 14.5 fold
HIV-1 F227L + V106A; ratio of EC50 values vs RPV
  Fold better than RPV, F227L + V106A: 15.3 fold
HIV-1 F227L + V106A
  RF F227L + V106A: 1.6
HIV-1 F227L + V106A; [6]
  SI F227L + V106A: 619
[2]
  CC50 at 5 days: 3310 ± 1700 nM
HIV-1 RT
  IC50: 529 ± 142 nM
CYP2C9
  IC50: 3410 nM
CYP2C19
  IC50: 15600 nM
hERG channel
  IC50: 79 nM
[3]; SD rats, iv 2 mg/kg, mean ± SD, n = 3, 2 mg/kg
  V (iv): 49.7 L/kg
[3]; [7]
  AUC(0-inf): 1210 ± 78.9 ng·h/mL
  AUC(0-t): 1150 ± 69.7 ng·h/mL
  MRT inf: 2.03 ± 0.41 h
  MRT last: 1.56 ± 0.17 h
  clearance: 277 mL/min/kg
  half-life: 2.09 ± 0.39 h
[3]; Sprague-Dawley, rat, plasma, oral, 20 mg/kg
  bioavailability: 15.3%
[3]; [8]
  AUC(0-inf): 1860 ± 1680 ng·h/mL
  AUC(0-t): 1680 ± 1480 ng·h/mL
  Cmax: 333 ± 276 ng/mL
  MRT inf: 5.02 ± 0.48 h
  MRT last: 4.1 ± 0.12 h
  Tmax: 1.5 ± 0.87 h
  half-life: 3 ± 0.74 h
[4]
  Death or signs of intoxication: no death or signs of intoxication
[5]
  IC50 at 10 min: 3410 to 50000 nM
physchem; pH 2, aqueous buffer
  solubility: 161 µg/mL (≈ 273 µM)
physchem; pH 7, aqueous buffer
  solubility: 11.7 µg/mL (≈ 19.8 µM)
physchem; pH 7.4, aqueous buffer
  solubility: 3.04 µg/mL (≈ 5.15 µM)
CYP2D6
  IC50: 36800 nM
CYP1A2
  IC50: > 50000 nM
CYP3A4
  IC50: 13500 nM
